{"source": "patent US10968183B2", "about": "“Small molecule FIEL1 inhibitor in inflammatory and fibrotic lung injury” (UNIVERSITY OF PITTSBURGH—OF THE COMMONWEALTH SYSTEM OF …, priority 2015, dated 2021)", "key": {"[1]": {"tested_on": "α-SMA expression in MRC5 cells", "assay": "α-SMA expression in MRC5 cells co-treated with TGFβ", "type": "cell-based, human", "procedure": "FIG. 15A. Diagram of the BC-1485 synthesis process. FIGS. 15B-15C. Docking studies of the lead compound, BC-1485, interacting with the FIEL1-HECT domain. FIG. 15D. MRC5 cells were treated with the compound at various doses; cells were also co-treated with TGFβ at 2 ng/ml. 18 h later, cells were collected and assayed for α-SMA expression. FIG. 15E. MRC5 cells were seeded in 35 mm glass bottom dishes before co-treatment with TGFβ at 2 ng/ml and BC-1480 or BC1485 at 5μM. FIG. 15F. PIAS4 protein half-life determination after BC-1480 or BC1485 treatment at 5μM for 18 h. FIG. 15G. PIAS4 and KIAA0317 mRNA analysis after BC1485 treatment for 18 h.\nMLE cells were cultured in Dulbecco's Modified Eagle Medium-F12 (Gibco) supplemented with 10% fetal bovine serum (DMEM-10). 293T cells were cultured in Dulbecco's Modified Eagle Medium (Gibco) supplemented with 10% fetal bovine serum (DMEM-10). MRC5 cells were cultured in Eagle's Minimum Essential Medium (Gibco) supplemented with 10% fetal bovine serum (EMEM-10). For protein expression in MLE cells, nucleofection was used following Amaxa's protocol. For protein overexpression in 293T cells, Fugene6HD transfection reagents were used following the manufacturer's protocol. For protein expression in MRC5 cells, MRC-5 Cell Avalanche™ Transfection Reagent was used following manufacturer's protocol. Cells were treated with TGFβ at 0-2 ng/ml for 0-18 h. For FIEL1, PKCξ, or GSK3β knockdown studies in cells, scramble shRNA, KIAA0317, PKCξ, or GSK3β shRNA were used to transfect cells for 48 h. For drug treatment, compounds were solubilized in DMSO before being added to the cells for up to 18 h. Cell lysates were prepared by brief sonication in 150 mM NaCl, 50 mM Tris, 1.0 mM EDTA, 2 mM dithiothreitol, 0.025% sodium azide, and 1 mM phenylmethylsulfonyl fluoride (Buffer A) at 4° C. For half-life study, MLE cells were exposed to cycloheximide (40 μg/ml) in a time dependent manner for up to 8 h. Cells were then collected and immunoblotted."}, "FIEL1/PIAS4 interaction": {"molecular_target": "T1, FIEL1/PIAS4 interaction (Homo sapiens, UniProt O15033)", "T1 construct": "made in house; host or cells: 293T cells (FIEL1)", "T1 sequence (O15033 1-789 isoform O15033-2)": "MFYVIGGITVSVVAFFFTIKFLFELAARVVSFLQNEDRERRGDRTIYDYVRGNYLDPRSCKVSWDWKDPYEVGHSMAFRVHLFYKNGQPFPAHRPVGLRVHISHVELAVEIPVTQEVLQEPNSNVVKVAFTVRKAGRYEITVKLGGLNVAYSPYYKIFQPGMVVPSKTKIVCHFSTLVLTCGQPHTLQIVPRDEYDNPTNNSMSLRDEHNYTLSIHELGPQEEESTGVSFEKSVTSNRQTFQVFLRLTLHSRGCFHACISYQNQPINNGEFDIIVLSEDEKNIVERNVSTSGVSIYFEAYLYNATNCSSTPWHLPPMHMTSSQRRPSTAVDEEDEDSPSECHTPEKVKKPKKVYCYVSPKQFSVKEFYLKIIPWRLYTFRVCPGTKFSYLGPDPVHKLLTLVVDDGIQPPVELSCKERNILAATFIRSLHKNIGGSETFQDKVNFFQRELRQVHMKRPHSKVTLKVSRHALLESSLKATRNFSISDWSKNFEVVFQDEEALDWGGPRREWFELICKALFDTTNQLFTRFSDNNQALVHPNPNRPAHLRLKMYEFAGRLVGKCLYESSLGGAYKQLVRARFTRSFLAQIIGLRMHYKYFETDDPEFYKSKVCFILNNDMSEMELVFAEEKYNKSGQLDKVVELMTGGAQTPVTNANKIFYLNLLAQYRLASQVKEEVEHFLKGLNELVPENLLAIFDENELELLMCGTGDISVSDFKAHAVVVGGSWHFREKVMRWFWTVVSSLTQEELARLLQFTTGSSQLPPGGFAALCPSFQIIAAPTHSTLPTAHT", "assay": "In vitro drug binding assay: PIAS4 pull-down on drug-bound FIEL1 beads", "procedure": "FIG. 7A. […] FIG. 7B. Structures of the BC-1480 backbone and lead compound BC-1485. FIG. 7C. FIEL1 protein was HIS-purified from FIEL1 expression in 293T cells using cobalt beads. Beads were then extensively washed prior to exposure to BC-1480 or BC-1485 at different concentrations (10^−4 to 100 μM). Purified PIAS4 protein was then incubated with drug-bound FIEL1 beads overnight. Beads were washed, and proteins were eluted and resolved on SDS-PAGE. The relative amounts of PIAS4 detected in the pull-downs was normalized to loading and quantified (n=2). FIG. 7D. MLE cells were exposed to BC-1480 or BC-1485 at various concentrations for 18 h. Cells were then collected and immunoblotted. FIGS. 7E-J. C57BL/6J mice were administered with bleomycin (0.05 U) for 7-21 days. Compounds BC-1480 and BC-1485 were given to mice through drinking water with an estimated dose of 5 mg/kg/d. Mice were euthanized, and lungs were lavaged with saline, harvested, and then homogenized. Lavage proteins, CXCL1, and total cell count were measured in FIGS. 7E-G. H. Survival studies of mice that were given bleomycin and compound treatments. Mice were carefully monitored over time; moribund, preterminal animals were immediately euthanized and recorded as deceased. Kaplan-Meier survival curves were generated using SPSS software (p<0.01 compared to Vehicle). Vehicle: n=24, BC-1480: n=13, BC-1485: n=12. FIG. 7I. Hydroxyproline contents were measured in lungs from 7, 14, and 21d after bleomycin challenge. FIG. 7J. Trichrome staining was performed on lung samples from E. Original magnification, ×10. *p<0.05 compared to Vehicle (t-test). Data are an average of two experiments (FIGS. 7E-J, 4-8 mice/group)\nFIEL1 protein was HIS-purified from FIEL1 expression 293T cells using cobalt beads. Beads were then extensively washed prior to exposure to BC-1480 or BC-1485 at different concentrations (10^−4 to 100 μM). Purified recombinant PIAS4 protein was then incubated with drug-bound FIEL1 beads overnight. […] The relative amounts of PIAS4 detected in the pull-downs were normalized to loading and quantified."}}}
{"smiles": "CC(NC(=O)c1ccc(NS(=O)(=O)c2ccc3[nH]c(=O)[nH]c3c2)cc1)C(=O)N(C)C", "note": "(stereo not shown) [BC-1485]", "values": [{"measurement": "inhibition of TGFβ pathway", "setting": "[1]; FIG. 15", "result": "inhibition of TGFβ pathway"}, {"measurement": "IC50", "setting": "[1]; MRC5 cells, TGFβ 2 ng/ml, 18 h, FIG. 15D, read-out: IC50 for decrease of α-SMA expression", "result": "~32", "unit": "nM"}, {"measurement": "activity in disrupting the FIEL1/PIAS4 interaction compared to BC-1480", "setting": "FIEL1/PIAS4 interaction; 10^−4 to 100 μM compound on FIEL1 beads, FIG. 7C", "result": "> 100", "unit": "fold"}, {"measurement": "inhibition of FIEL1 and PIAS4 interaction", "setting": "FIEL1/PIAS4 interaction; FIG. 7", "result": "inhibition of FIEL1 and PIAS4 interaction"}]}
